# According to paper PMC11172257 (Emerging Microbes & Infections, 2024):
# Test system: K. pneumonia HSD
# Assay: microbe, parasite or virus in culture
# Parameters: species or system bacterial strains
# Conditions: for MIC: Klebsiella pneumoniae, read-out: MIC (μg/mL)^a / K. pneumonia HSD
Compound,MIC [µg/mL],MIC (μg/mL)^a / K. pneumonia HSD [µg/mL]
C[C@@H](O)[C@H]1C(=O)N2C(C(=O)O)=C(S[C@@H]3CN[C@H](C(=O)Nc4cccc(C(=O)O)c4)C3)[C@H](C)[C@H]12 [Ertapenem],32,
NCC[C@H](O)C(=O)N[C@@H]1C[C@H](N)[C@@H](O[C@H]2O[C@H](CN)[C@@H](O)[C@H](O)[C@H]2O)[C@H](O)[C@H]1O[C@H]1O[C@H](CO)[C@@H](O)[C@H](N)[C@H]1O [Amikacin],> 128,
CC1(C)S[C@@H]2[C@H](NC(=O)[C@H](N)c3ccc(O)cc3)C(=O)N2[C@H]1C(=O)O [Amoxicillin],> 32,
CO/N=C(\C(=O)N[C@@H]1C(=O)N2C(C(=O)[O-])=C(C[N+]3(C)CCCC3)CS[C@H]12)c1csc(N)n1 [Cefepime],,128
CC(C)(O/N=C(\C(=O)N[C@@H]1C(=O)N2C(C(=O)[O-])=C(C[n+]3ccccc3)CS[C@H]12)c1csc(N)n1)C(=O)O [ceftazidime],> 128,
C[C@@H](O)[C@H]1C(=O)N2C(C(=O)O)=C(S[C@@H]3CN[C@H](C(=O)N(C)C)C3)[C@H](C)[C@H]12 [Meropenem],4,
